Results on 9 molecules are retold here after patent publication US20060039866A1, “Method for treating sleep-related breathing disorders” (Cypress Bioscience, Inc., priority 2004, published 2006).

Series [1] in a line: treating OSA with MER 810. The settings on record: in vivo. From the text: The latter has been associated with worsening OSA symptoms due to reduction in upper airway tone in animal models. However, this pharmacology may also increase SWS and increase respiratory drive via peripheral effects, while its serotonin (5-HT) reuptake inhibition and 5-HT1A agonist activities decrease REM sleep. The 5-HT1A agonist activity also increases respiratory drive and may increase upper airway muscle tone (Homer). Adding a noradrenergic alpha1 agonist, alpha2 antagonist or reuptake inhibitor bolsters the latter effect.

In series [2] the test system is patients with sleep apnea. The settings on record: cited from earlier work; for benefit in OSAS / obstructive sleep apnea: individuals with obstructive apnea.
Series [3] concerns animal model of sleep apnea. To be noted: cited from earlier work.
The next series deals with rat model. The settings on record: cited from earlier work.
Setting [4] is: individuals with obstructive sleep apnea.

Turning to `CC1CN(c2cccc(Cl)c2)CCN1CCCn1nc2ccccn2c1=O` (stereo not shown) [MER 810], the “effectiveness in treating OSA” value in series [1] is given as “quite effective”. Consider `CNCCCC1c2ccccc2C=Cc2ccccc21` [Protriptyline], for which the “results of several small trials” value in series [2] (individuals with OSAS) is “variable results”. In series [2] (several small trials), the side effects result was “frequent and significant side effects”. Turning to `CC(=O)Nc1nnc(S(N)(=O)=O)s1` [acetazolamide, N-(5-[Aminosulfonyl]-1,3,4-thiadiazol-2-yl)acetamide], in series [2] (Whyte et al., Sleep), the apnea/hypopnea frequency result is “improvement in apnea/hypopnea frequency” and the “frequency of 4% desaturation” value was “decreased the frequency of 4% desaturation”. For `Nc1ncnc2c1ncn2[C@@H]1O[C@H](CO)[C@@H](O)[C@H]1O` [adenosine], the reducing apnea result in series [3] was “somewhat effective”. Turning to `CCN1CC(CCN2CCOCC2)C(c2ccccc2)(c2ccccc2)C1=O` (stereo not shown) [doxapram], in series [2] (setting [4]), the “average arterial oxygen saturation” value was “did not alter” and the length of apneas entry is on record as “decrease the length of apneas”. As to `CN1CCN2c3ncccc3Cc3ccccc3C2C1` (stereo not shown) [mirtazapine, 1,2,3,4,10,14b-hexahydro-2-methylpyrazino[2,1-a]pyrido[2,3-c]benzazepine], the “efficacy in the rat model” value in the series with rat model is recorded as “appeared effective”. For the molecule `C=CCN1CC[C@]23c4c5ccc(O)c4O[C@H]2C(=O)CC[C@@]3(O)[C@H]1C5` [naloxone], the “benefit in OSAS / obstructive sleep apnea” value in series [2] is “only slightly helpful”.

`Cn1c(=O)c2[nH]cnc2n(C)c1=O` [theophylline]: the “benefit in OSAS / obstructive sleep apnea” value in series [2] is “of no use”. Further, in series [2] (patients with central apnea), the “benefit in central apnea” value is recorded as “may benefit”. Turning to medroxyprogesterone, the “benefit in OSAS / obstructive sleep apnea” value in series [2] was “no consistent benefit”.
